Results published in patent US20060069132A1, “Azolecarboxamide herbicides” (priority 2004, published 2006).

Columns and labels:
[1] = tested on: wheat; assay: Test B postemergence herbicide test; type: in vivo, Triticum aestivum; parameters: key to Wheat plant response rating: 0 = no effect, 100 = complete control; settings: postemergence
Procedure, shortened: (§1)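 Scale 0–100: zero equals no visible effect, 100 complete control, judged by eye relative to controls. Timing: 13 to 15 days in greenhouse post-treatment. Growth stage at spraying: two leaves (paddy) or one to four leaves, 2–18 cm (postemergence).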

[2] = tested on: rice; assay: Test B pre-/postemergence herbicide test; type: in vivo, Oryza sativa; settings: 0 = no effect, 100 = complete control, preemergence; for Rice plant response rating (0 to 100 scale): 125 g ai/ha; for Plant response rating, Rice: 500 g ai/ha, visual rating
Procedure, shortened: (§2)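 Visual rating, 0 (no effect) to 100 (complete control), versus untreated controls after 13–15 d in greenhouse. Pre- and postemergence applications (postemergence plants 2–18 cm, 1–4 leaves); flooded paddy arm at 2-leaf stage. Compounds in non-phytotoxic solvent plus surfactant.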

[3] = tested on: cocklebur; assay: Test B pre-/postemergence herbicide test; type: in vivo, Xanthium strumarium; settings: for Cocklebur plant response rating (0 to 100 scale) / Plant response rating, Cocklebur: 0 = no effect, 100 = complete control, preemergence; for Plant response rating, Cocklebur / Cocklebur plant response rating: visual rating; for Cocklebur plant response rating: postemergence, scale 0 (no effect) to 100 (complete control)
Procedure, shortened: (§3)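 Test chemicals in a non-phytotoxic solvent mixture with surfactant were applied preemergence to seeded species and postemergence to plants 2-18 cm tall (1- to 4-leaf stage); rice and barnyardgrass were also tested in a flooded paddy at the 2-leaf stage. Visual rating versus controls after 13-15 days in greenhouse, scale 0 (no effect) to 100 (complete control).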

[4] = tested on: large crabgrass; assay: Test B pre-/postemergence herbicide test; type: in vivo, Digitaria sanguinalis; settings: for Crabgrass, Large plant response rating: postemergence
Procedure, shortened: as §2

[5] = tested on: pigweed; assay: Test B pre-/postemergence herbicide test; type: in vivo, Amaranthus retroflexus; settings: for Pigweed plant response rating: postemergence
Procedure, shortened: as §2

[6] = tested on: Surinam grass; assay: Test B pre-/postemergence herbicide test; type: in vivo, Urochloa decumbens; settings: for Surinam Grass plant response rating (0 to 100 scale) / Plant response rating, Surinam Grass: 0 = no effect, 100 = complete control, preemergence; for Surinam Grass plant response rating: postemergence
Procedure, shortened: as §2

[7] = tested on: barnyardgrass; assay: Test B pre-/postemergence herbicide test; type: in vivo, Echinochloa crus-galli; settings: for Barnyardgrass plant response rating (0 to 100 scale) / Plant response rating, Barnyardgrass: 0 = no effect, 100 = complete control, preemergence; for Plant response rating, Barnyardgrass / Barnyardgrass plant response rating: visual rating; for Barnyardgrass plant response rating: postemergence, scale 0 (no effect) to 100 (complete control)
Procedure, shortened: as §3

[8] = tested on: giant foxtail; assay: Test B pre-/postemergence herbicide test; type: in vivo, Setaria faberi; settings: for Foxtail, Giant plant response rating (0 to 100 scale) / Plant response rating, Foxtail, Giant: 0 = no effect, 100 = complete control, preemergence; for Foxtail, Giant plant response rating: postemergence
Procedure, shortened: as §2

[9] = tested on: wild oat; assay: Test B postemergence herbicide test; type: in vivo, Avena fatua; settings: postemergence
Procedure, shortened: as §1

[10] = tested on: rice; assay: Test B flooded paddy test; type: in vivo, Oryza sativa; settings: 1000 g ai/ha, scale 0 to 100 (0 no effect, 100 complete control)
Procedure, shortened: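 Read-out: visual comparison with controls, scored 0 to 100, where 100 means complete control and 0 no effect. Formulated chemicals were applied postemergence to plants 2–18 cm tall (1- to 4-leaf), or to flooded-paddy plants at the 2-leaf stage, then held 13 to 15 days under glass.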

[11] = tested on: morningglory; assay: Test B pre-/postemergence herbicide test; type: in vivo, Ipomoea coccinea; settings: for Morningglory plant response rating (0 to 100 scale) / Plant response rating, Morningglory: 0 = no effect, 100 = complete control, preemergence; for Morningglory plant response rating: postemergence
Procedure, shortened: as §3

[12] = tested on: blackgrass; assay: Test B postemergence herbicide test; type: in vivo, Alopecurus myosuroides; settings: postemergence, visual rating, scale 0 (no effect) to 100 (complete control)
Procedure, shortened: (§4)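 Paddy species grown to the 2-leaf stage under flooding; blackgrass sprayed postemergence at 2–18 cm (1- to 4-leaf stage). Plants kept in a greenhouse for 13 to 15 days, then visually rated against controls on 0 (no effect) to 100 (complete control).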

[13] = tested on: barnyardgrass; assay: Test B flooded paddy test; type: in vivo, Echinochloa crus-galli; settings: 1000 g ai/ha, scale 0 to 100 (0 no effect, 100 complete control)
Procedure, shortened: as §4

[14] = tested on: lambsquarters; assay: Test B pre-/postemergence herbicide test; type: in vivo, Chenopodium album; settings: for Lambsquarters plant response rating: postemergence
Procedure, shortened: as §2

[15] = tested on: velvetleaf; assay: Test B pre-/postemergence herbicide test; type: in vivo, Abutilon theophrasti; settings: for Velvetleaf plant response rating (0 to 100 scale) / Plant response rating, Velvetleaf: 0 = no effect, 100 = complete control, preemergence; for Velvetleaf plant response rating: postemergence
Procedure, shortened: as §2

[16] = tested on: small flower umbrella sedge; assay: Test B flooded paddy test; type: in vivo, Cyperus difformis; settings: 1000 g ai/ha, scale 0 to 100 (0 no effect, 100 complete control)
Procedure, shortened: as §4

[17] = tested on: corn; assay: Test B pre-/postemergence herbicide test; type: in vivo, Zea mays; settings: for Corn plant response rating (0 to 100 scale) / Plant response rating, Corn: 0 = no effect, 100 = complete control, preemergence; for Corn plant response rating: postemergence
Procedure, shortened: as §2

[18] = tested on: ducksalad; assay: Test B flooded paddy test; type: in vivo, Heteranthera limosa; settings: 1000 g ai/ha, scale 0 to 100 (0 no effect, 100 complete control)
Procedure, shortened: as §4

[19] = 125 g ai/ha, visual rating, scale 0 (no effect) to 100 (complete control)
[20] = 500 g ai/ha, scale 0 to 100, 0 is no effect, 100 is complete control
[21] = 125 g ai/ha, 0 = no effect, 100 = complete control, preemergence
[22] = 500 g ai/ha, visual rating, 0 = no effect, 100 = complete control, preemergence

With `CCn1nc(C(C)(C)C)cc1C(=O)Nc1cccc(C(=O)N(C)OC)n1` [Compound 246] the “Wheat plant response rating” value [1, 19] was 0, the “Wheat plant response rating” value [1, 20] was 30 and the “Rice plant response rating (0 to 100 scale)” value [2] was 40. The “Plant response rating, Rice” value [2] was 70, the “Cocklebur plant response rating (0 to 100 scale)” value ([3]; 125 g ai/ha) was 0 and the “Plant response rating, Cocklebur” value ([3]; 500 g ai/ha) was 0. The “Cocklebur plant response rating” value ([3]; 125 g ai/ha) was 20, the “Cocklebur plant response rating” value ([3]; 500 g ai/ha) was 30 and the “Crabgrass, Large plant response rating (0 to 100 scale)” value [4, 21] was 70. For the same molecule, the “Plant response rating, Crabgrass, Large” value [4, 22] was 100, the “Crabgrass, Large plant response rating” value [4, 19] was 10 and the “Crabgrass, Large plant response rating” value [4, 20] was 20. For the same molecule, the “Pigweed plant response rating (0 to 100 scale)” value [5, 21] was 100, the “Plant response rating, Pigweed” value [5, 22] was 100 and the “Pigweed plant response rating” value [5, 19] was 50. For the same molecule, the “Pigweed plant response rating” value [5, 20] was 60, the “Surinam Grass plant response rating (0 to 100 scale)” value ([6]; 125 g ai/ha) was 30 and the “Plant response rating, Surinam Grass” value ([6]; 500 g ai/ha, visual rating) was 80. For the same molecule, the “Surinam Grass plant response rating” value [6, 19] was 20, the “Surinam Grass plant response rating” value [6, 20] was 20 and the “Barnyardgrass plant response rating (0 to 100 scale)” value ([7]; 125 g ai/ha) was 60. For the same molecule, the “Plant response rating, Barnyardgrass” value ([7]; 500 g ai/ha) was 90, the “Barnyardgrass plant response rating” value ([7]; 125 g ai/ha) was 30 and the “Barnyardgrass plant response rating” value ([7]; 500 g ai/ha) was 70. The “Foxtail, Giant plant response rating (0 to 100 scale)” value ([8]; 125 g ai/ha) was 30, the “Plant response rating, Foxtail, Giant” value ([8]; 500 g ai/ha, visual rating) was 90 and the “Foxtail, Giant plant response rating” value [8, 19] was 30. The “Foxtail, Giant plant response rating” value [8, 20] was 30, the “Oat, Wild plant response rating” value [9, 19] was 10 and the “Oat, Wild plant response rating” value [9, 20] was 20. The “Rice plant response rating” value [10] was 60, the “Morningglory plant response rating (0 to 100 scale)” value ([11]; 125 g ai/ha) was 0 and the “Plant response rating, Morningglory” value ([11]; 500 g ai/ha, visual rating) was 10. For the same molecule, the “Morningglory plant response rating” value [11, 19] was 0, the “Morningglory plant response rating” value [11, 20] was 10 and the “Blackgrass plant response rating” value ([12]; 125 g ai/ha) was 0. The “Blackgrass plant response rating” value ([12]; 500 g ai/ha) was 0, the “Barnyardgrass plant response rating” value [13] was 50 and the “Lambsquarters plant response rating (0 to 100 scale)” value [14, 21] was 70. For the same molecule, the “Plant response rating, Lambsquarters” value [14, 22] was 100, the “Lambsquarters plant response rating” value [14, 19] was 50 and the “Lambsquarters plant response rating” value [14, 20] was 70. The “Velvetleaf plant response rating (0 to 100 scale)” value ([15]; 125 g ai/ha) was 60, the “Plant response rating, Velvetleaf” value ([15]; 500 g ai/ha, visual rating) was 90 and the “Velvetleaf plant response rating” value [15, 19] was 30. The “Velvetleaf plant response rating” value [15, 20] was 60, the “Sedge, Umbrella plant response rating” value [16] was 50 and the “Corn plant response rating (0 to 100 scale)” value ([17]; 125 g ai/ha) was 0. For the same molecule, the “Plant response rating, Corn” value ([17]; 500 g ai/ha, visual rating) was 20, the “Corn plant response rating” value [17, 19] was 0 and the “Corn plant response rating” value [17, 20] was 10. For the same molecule, the “Ducksalad plant response rating” value [18] was 50.
With `CCNC(=O)c1cc(NC(=O)c2cc(C(C)(C)C)nn2CC)ccn1` [Compound 257] the “Wheat plant response rating” value [1, 19] was 0, the “Wheat plant response rating” value [1, 20] was 20 and the “Rice plant response rating (0 to 100 scale)” value [2] was 0. The “Plant response rating, Rice” value [2] was 0, the “Cocklebur plant response rating (0 to 100 scale)” value ([3]; 125 g ai/ha) was 0 and the “Plant response rating, Cocklebur” value ([3]; 500 g ai/ha) was 0. For the same molecule, the “Cocklebur plant response rating” value ([3]; 125 g ai/ha) was 0, the “Cocklebur plant response rating” value ([3]; 500 g ai/ha) was 70 and the “Crabgrass, Large plant response rating (0 to 100 scale)” value [4, 21] was 0. The “Crabgrass, Large plant response rating” value [4, 19] was 0, the “Crabgrass, Large plant response rating” value [4, 20] was 10 and the “Pigweed plant response rating (0 to 100 scale)” value [5, 21] was 0. The “Pigweed plant response rating” value [5, 19] was 60, the “Pigweed plant response rating” value [5, 20] was 80 and the “Surinam Grass plant response rating (0 to 100 scale)” value ([6]; 125 g ai/ha) was 0. The “Plant response rating, Surinam Grass” value ([6]; 500 g ai/ha, visual rating) was 0, the “Surinam Grass plant response rating” value [6, 19] was 0 and the “Surinam Grass plant response rating” value [6, 20] was 20. For the same molecule, the “Barnyardgrass plant response rating (0 to 100 scale)” value ([7]; 125 g ai/ha) was 0, the “Plant response rating, Barnyardgrass” value ([7]; 500 g ai/ha) was 20 and the “Barnyardgrass plant response rating” value ([7]; 125 g ai/ha) was 0. For the same molecule, the “Barnyardgrass plant response rating” value ([7]; 500 g ai/ha) was 0, the “Foxtail, Giant plant response rating (0 to 100 scale)” value ([8]; 125 g ai/ha) was 0 and the “Plant response rating, Foxtail, Giant” value ([8]; 500 g ai/ha, visual rating) was 50. For the same molecule, the “Foxtail, Giant plant response rating” value [8, 19] was 0, the “Foxtail, Giant plant response rating” value [8, 20] was 0 and the “Oat, Wild plant response rating” value [9, 19] was 10. For the same molecule, the “Oat, Wild plant response rating” value [9, 20] was 30, the “Rice plant response rating” value [10] was 30 and the “Morningglory plant response rating (0 to 100 scale)” value ([11]; 125 g ai/ha) was 0. For the same molecule, the “Plant response rating, Morningglory” value ([11]; 500 g ai/ha, visual rating) was 0, the “Morningglory plant response rating” value [11, 19] was 0 and the “Morningglory plant response rating” value [11, 20] was 0. The “Blackgrass plant response rating” value ([12]; 125 g ai/ha) was 0, the “Blackgrass plant response rating” value ([12]; 500 g ai/ha) was 10 and the “Barnyardgrass plant response rating” value [13] was 0. For the same molecule, the “Lambsquarters plant response rating (0 to 100 scale)” value [14, 21] was 0, the “Lambsquarters plant response rating” value [14, 19] was 20 and the “Lambsquarters plant response rating” value [14, 20] was 50. For the same molecule, the “Velvetleaf plant response rating (0 to 100 scale)” value ([15]; 125 g ai/ha) was 0, the “Plant response rating, Velvetleaf” value ([15]; 500 g ai/ha, visual rating) was 0 and the “Velvetleaf plant response rating” value [15, 19] was 0. For the same molecule, the “Velvetleaf plant response rating” value [15, 20] was 10, the “Sedge, Umbrella plant response rating” value [16] was 0 and the “Corn plant response rating (0 to 100 scale)” value ([17]; 125 g ai/ha) was 0. The “Plant response rating, Corn” value ([17]; 500 g ai/ha, visual rating) was 0, the “Corn plant response rating” value [17, 19] was 0 and the “Corn plant response rating” value [17, 20] was 0. The “Ducksalad plant response rating” value [18] was 50.
